Experimental data as given in ChEMBL document CHEMBL1135808, “A new type of mixed anhydride and its applications to the synthesis of 7-substituted 8-chloro-5,5-dioxoimidazo[1,2-b][1,4,2]benzodithiazines with in vitro antitumor activity” (2002).

Tests used:
[1] = tested on: OVCAR-3; assay: In vitro growth inhibition against ovarian cancer OVCAR-3 cell line was reported.; type: functional; conditions: Homo sapiens
[2] = tested on: RPMI-8226; assay: In vitro total growth inhibition against leukemia […] cell lines was reported.; type: functional; conditions: Homo sapiens, read-out: Log TGI (converted)
[3] = tested on: NCI-H23; assay: In vitro total growth inhibition against non-small-cell lung cancer NCI-H23 cell lines was reported.; type: functional; conditions: Homo sapiens, read-out: Log TGI (converted)
[4] = tested on: SF-268; assay: In vitro growth inhibition against CNS cancer SF-268 cell line was reported.; type: functional; conditions: Homo sapiens
[5] = tested on: M14; assay: Log of molar concentration leading to 50% cell death against melanoma M14 cell line was reported; type: functional; conditions: Homo sapiens, read-out: Log LC50 (the source's name) (converted)
[6] = tested on: IGROV-1; assay: In vitro growth inhibition against ovarian cancer IGROV1 cell line was reported.; type: functional; conditions: Homo sapiens
[7] = organism: Homo sapiens; assay: In vitro total growth inhibition against non-small-cell lung cancer EKVX cell lines was reported.; type: functional; conditions: read-out: Log TGI (converted)
[8] = tested on: SK-MEL-5; assay: In vitro total growth inhibition against melanoma SK-MEL-5 cell lines was reported.; type: functional; conditions: Homo sapiens, read-out: Log TGI (converted)
[9] = tested on: SK-MEL-2; assay: In vitro growth inhibition against melanoma SK-MEL-2 cell line was reported.; type: functional; conditions: Homo sapiens
[10] = tested on: A549; assay: In vitro total growth inhibition against non-small-cell lung cancer A 549/ATCC cell lines was reported.; type: functional; conditions: Homo sapiens, read-out: Log TGI (converted)
[11] = tested on: TK-10; assay: In vitro growth inhibition against renal cancer TK-10 cell line was reported.; type: functional; conditions: Homo sapiens
[12] = tested on: K562; assay: In vitro total growth inhibition against leukemia K-562 cell lines was reported.; type: functional; conditions: Homo sapiens, read-out: Log TGI (converted)
[13] = tested on: U-251; assay: In vitro total growth inhibition against CNS cancer U251 cell lines was reported.; type: functional; conditions: Homo sapiens, read-out: Log TGI (converted)
[14] = tested on: HT-29; assay: In vitro total growth inhibition against colon cancer HT-29 cell lines was reported.; type: functional; conditions: Homo sapiens, read-out: Log TGI (converted)
[15] = tested on: HL-60; assay: In vitro growth inhibition against leukemia HL-60(TB) cell line was reported.; type: functional; conditions: Homo sapiens
[16] = tested on: SK-MEL-28; assay: In vitro total growth inhibition against melanoma SK-MEL-28 cell lines was reported.; type: functional; conditions: Homo sapiens, read-out: Log TGI (converted)
[17] = tested on: A549; assay: In vitro growth inhibition against non-small-cell lung cancer A 549/ATCC cell line was reported.; type: functional; conditions: Homo sapiens
[18] = tested on: OVCAR-4; assay: Log of molar concentration leading to 50% cell death against ovarian cancer OVCAR-4 cell line was reported; type: functional; conditions: Homo sapiens, read-out: Log LC50 (the source's name) (converted)
[19] = tested on: LOX IMVI; assay: In vitro total growth inhibition against melanoma LOX IMVI cell lines was reported.; type: functional; conditions: Homo sapiens, read-out: Log TGI (converted)
[20] = tested on: Tumor Cell line; assay: In vitro total growth inhibition for 50 cell lines was reported as log of molar concentration; type: functional, Homo sapiens
[21] = tested on: IGROV-1; assay: Log of molar concentration leading to 50% cell death against ovarian cancer IGROV1 cell line was reported; type: functional; conditions: Homo sapiens, read-out: Log LC50 (the source's name) (converted)
[22] = tested on: U-251; assay: In vitro growth inhibition against CNS cancer U251 cell line was reported.; type: functional; conditions: Homo sapiens
[23] = tested on: SNB-19; assay: In vitro total growth inhibition against CNS cancer SNB-19 cell lines was reported.; type: functional; conditions: Homo sapiens, read-out: Log TGI (converted)
[24] = tested on: UO-31; assay: In vitro growth inhibition against renal cancer UO-31 cell line was reported.; type: functional; conditions: Homo sapiens
[25] = tested on: HL-60; assay: Log of molar concentration leading to 50% cell death against leukemia HL-60(TB) cell line was reported; type: functional; conditions: Homo sapiens, read-out: Log LC50 (the source's name) (converted)
[26] = tested on: OVCAR-5; assay: In vitro total growth inhibition against ovarian cancer OVCAR-5 cell lines was reported.; type: functional; conditions: Homo sapiens, read-out: Log TGI (converted)
[27] = tested on: HOP-92; assay: In vitro growth inhibition against non-small-cell lung cancer HOP-92 cell line was reported.; type: functional; conditions: Homo sapiens
[28] = tested on: RXF 393; assay: In vitro total growth inhibition against renal cancer RXF 393 cell lines was reported.; type: functional; conditions: Homo sapiens, read-out: Log TGI (converted)
[29] = tested on: M14; assay: In vitro growth inhibition against melanoma M14 cell line was reported.; type: functional; conditions: Homo sapiens
[30] = tested on: MCF7; assay: In vitro growth inhibition against breast cancer MCF 7 cell line was reported.; type: functional; conditions: Homo sapiens
[31] = tested on: OVCAR-8; assay: In vitro total growth inhibition against ovarian cancer OVCAR-8 cell lines was reported.; type: functional; conditions: Homo sapiens, read-out: Log TGI (converted)
[32] = tested on: Malme-3M; assay: In vitro growth inhibition against melanoma MALME 3M cell line was reported.; type: functional; conditions: Homo sapiens
[33] = tested on: SK-MEL-28; assay: In vitro growth inhibition against melanoma SK-MEL-28 cell line was reported.; type: functional; conditions: Homo sapiens
[34] = tested on: TK-10; assay: In vitro total growth inhibition against renal cancer TK-10 cell lines was reported.; type: functional; conditions: Homo sapiens, read-out: Log TGI (converted)
[35] = tested on: DU-145; assay: Log of molar concentration leading to 50% cell death against prostate cancer […] cell line was reported; type: functional; conditions: Homo sapiens, read-out: Log LC50 (the source's name) (converted)
[36] = tested on: NCI-H522; assay: Log of molar concentration leading to 50% cell death against non-small-cell lung cancer NCI-522 cell line was reported; type: functional; conditions: Homo sapiens, read-out: Log LC50 (the source's name) (converted)
[37] = tested on: K562; assay: In vitro growth inhibition against leukemia K-562 cell line was reported.; type: functional; conditions: Homo sapiens
[38] = tested on: SF-539; assay: Log of molar concentration leading to 50% cell death against CNS cancer SF-539 cell line was reported; type: functional; conditions: Homo sapiens, read-out: Log LC50 (the source's name) (converted)
[39] = tested on: 786-0; assay: In vitro total growth inhibition against renal cancer […] cell lines was reported.; type: functional; conditions: Homo sapiens, read-out: Log TGI (converted)
[40] = tested on: UACC-62; assay: In vitro growth inhibition against melanoma UACC-62 cell line was reported.; type: functional; conditions: Homo sapiens
[41] = tested on: HOP-62; assay: In vitro total growth inhibition against non-small-cell lung cancer HOP-62 cell lines was reported.; type: functional; conditions: Homo sapiens, read-out: Log TGI (converted)
[42] = tested on: T47D; assay: In vitro total growth inhibition against breast cancer […] cell lines was reported.; type: functional; conditions: Homo sapiens, read-out: Log TGI (converted)
[43] = tested on: RPMI-8226; assay: In vitro growth inhibition against leukemia […] cell line was reported.; type: functional; conditions: Homo sapiens
[44] = tested on: MDA-MB-231; assay: In vitro growth inhibition against breast cancer MDA-MB-231/ATCC cell line was reported.; type: functional; conditions: Homo sapiens
[45] = tested on: T47D; assay: In vitro growth inhibition against breast cancer […] cell line was reported.; type: functional; conditions: Homo sapiens
[46] = tested on: SN12C; assay: In vitro growth inhibition against renal cancer SN12C cell line was reported.; type: functional; conditions: Homo sapiens
[47] = tested on: EKVX; assay: In vitro growth inhibition against non-small-cell lung cancer EKVX cell line was reported.; type: functional; conditions: Homo sapiens
[48] = tested on: MOLT-4; assay: In vitro growth inhibition against leukemia MOLT-4 cell line was reported.; type: functional; conditions: Homo sapiens
[49] = tested on: NCI-H322M; assay: In vitro total growth inhibition against non-small-cell lung cancer NCI-H322M cell lines was reported.; type: functional; conditions: Homo sapiens, read-out: Log TGI (converted)
[50] = tested on: PC-3; assay: Log of molar concentration leading to 50% cell death against prostate cancer PC-3 cell line was reported; type: functional; conditions: Homo sapiens, read-out: Log LC50 (the source's name) (converted)
[51] = tested on: COLO 205; assay: In vitro total growth inhibition against colon cancer COLO 205 cell lines was reported.; type: functional; conditions: Homo sapiens, read-out: Log TGI (converted)
[52] = tested on: HCC 2998; assay: Log of molar concentration leading to 50% cell death against colon cancer HCC2998 cell line was reported; type: functional; conditions: Homo sapiens, read-out: Log LC50 (the source's name) (converted)
[53] = tested on: MDA-MB-231; assay: In vitro total growth inhibition against breast cancer MDA-MB-231/ATCC cell lines was reported.; type: functional; conditions: Homo sapiens, read-out: Log TGI (converted)
[54] = tested on: RXF 393; assay: Log of molar concentration leading to 50% cell death against renal cancer RXF 393 cell line was reported; type: functional; conditions: Homo sapiens, read-out: Log LC50 (the source's name) (converted)
[55] = tested on: NCI/ADR-RES; assay: In vitro total growth inhibition against breast cancer NCI/ADR-RES cell lines was reported.; type: functional; conditions: Homo sapiens, read-out: Log TGI (converted)
[56] = tested on: KM12; assay: Log of molar concentration leading to 50% cell death against colon cancer KM12 cell line was reported; type: functional; conditions: Homo sapiens, read-out: Log LC50 (the source's name) (converted)
[57] = tested on: HCT-116; assay: Log of molar concentration leading to 50% cell death against colon cancer HCT116 cell line was reported; type: functional; conditions: Homo sapiens, read-out: Log LC50 (the source's name) (converted)
[58] = tested on: HCT-15; assay: In vitro growth inhibition against colon cancer […] cell line was reported.; type: functional; conditions: Homo sapiens
[59] = tested on: SF-539; assay: In vitro growth inhibition against CNS cancer SF-539 cell line was reported.; type: functional; conditions: Homo sapiens
[60] = tested on: HOP-62; assay: Log of molar concentration leading to 50% cell death against non-small-cell lung cancer HOP-62 cell line was reported; type: functional; conditions: Homo sapiens, read-out: Log LC50 (the source's name) (converted)

For `O=C(Nc1nccs1)c1cc2c(cc1Cl)Sc1nccn1S2(=O)=O`, the GI50 [1] was 15.1 µM, the TGI [2] was 23.4 µM and the TGI [3] was 33.9 µM. For the same compound, the GI50 [4] was 19.1 µM, the CC50 [5] was 67.6 µM and the GI50 [6] was 11.7 µM. For the same compound, the TGI [7] was 44.7 µM, the TGI [8] was 30.2 µM and the GI50 [9] was 17.4 µM. It also gave a TGI [10] of 63.1 µM, a GI50 [11] of 19.1 µM and a TGI [12] of 46.8 µM. The TGI [13] was 30.9 µM, the TGI [14] was 46.8 µM and the GI50 [15] was 13.5 µM. It also gave a TGI [16] of 38 µM, a GI50 [17] of 24 µM and a CC50 [18] of 91.2 µM. For the same compound, the TGI [19] was 25.7 µM, the “Log GTI” value [20] was -4.04 and the CC50 [21] was 75.9 µM. For the same compound, the GI50 [22] was 17.4 µM, the TGI [23] was 37.2 µM and the GI50 [24] was 4.37 µM. The CC50 [25] was 70.8 µM, the TGI [26] was 45.7 µM and the GI50 [27] was 15.1 µM. For the same compound, the TGI [28] was 39.8 µM, the GI50 [29] was 17.8 µM and the GI50 [30] was 6.76 µM. For the same compound, the TGI [31] was 37.2 µM, the GI50 [32] was 20 µM and the GI50 [33] was 20 µM. For the same compound, the TGI [34] was 34.7 µM, the CC50 [35] was 27.5 µM and the CC50 [36] was 6.61 µM. The GI50 [37] was 15.8 µM, the CC50 [38] was 72.4 µM and the TGI [39] was 29.5 µM. For the same compound, the GI50 [40] was 14.5 µM, the TGI [41] was 30.2 µM and the TGI [42] was 64.6 µM. The GI50 [43] was 9.33 µM, the GI50 [44] was 19.5 µM and the GI50 [45] was 23.4 µM. It also gave a GI50 [46] of 17 µM, a GI50 [47] of 20.4 µM and a GI50 [48] of 19.1 µM. The TGI [49] was 33.9 µM, the CC50 [50] was 66.1 µM and the TGI [51] was 30.9 µM. The CC50 [52] was 53.7 µM, the TGI [53] was 36.3 µM and the CC50 [54] was 83.2 µM. The TGI [55] was 44.7 µM, the CC50 [56] was 57.5 µM and the CC50 [57] was 55 µM. The GI50 [58] was 12.3 µM, the GI50 [59] was 19.5 µM and the CC50 [60] was 61.7 µM.
